Laboratory results published in patent US4885307A, “Derivatives of 1-arylsulphonyl-1,5-dihydro-2H-pyrrol-2-one, and compositions containing them” (Roussel Uclaf, priority 1987, dated 1989).

System: male mice (Charles Rivers CD1)
Experiment: Learning and memorizing: anti-amnesiac effect on electric shock-induced retrograde amnesia (two-compartment luminous/dark box avoidance)
Type: in vivo
Conditions: for Percentage increase in latency time in comparison with the controls: 3 hours after treatment, * = statistically different in comparison with controls; for anti-amnesic activity: at doses between 50 and 200 mg/kg, oral route
Source text: There were used male mice (Charles Rivers CD1) weighing 25-30 g. The animals were placed in the luminous part of a box with two compartments communicating by an opening [F. Barzaghi and G. Galliani, Brit. J. Pharmacol. 86, p.
At the instant when the mouse passes from the luminous compartment to the dark compartment, the opening closes and it is immediately punished by an electric discharge to the paws. The animal submitted to this procedure learns to memorize the punishment. In fact, if it is put back in the luminous compartment, it will thus avoid crossing the opening and reentering the dark compartment.
In order to induce a retrograde amnesia, the animals are submitted immediately after learning to an electric shock. After the electric shock, the products are administered by oral route at different doses.
There were used from 10 to 50 animals per dose.
The anti-amnesiac effect of the products is evaluated 3 hours after the treatment, using the same procedure as that utilized for the acquisition.
The time taken by the animal to return to the dark chamber (time limit 180 seconds) is used as evaluation parameter.
The active products are those which cause a significant increase in the latency time with a bell-shaped dose-response curve.
The results are expressed as percentages of the increase of the latency time in comparison with the corresponding controls.

Structure (SMILES) | Percentage increase in latency time in comparison with the controls (50 mg/kg per os) [%] | Percentage increase in latency time in comparison with the controls (100 mg/kg per os) [%] | Percentage increase in latency time in comparison with the controls (200 mg/kg per os) [%] | anti-amnesic activity
CCCCOC1C=CC(=O)N1S(=O)(=O)c1ccccc1 (stereo not drawn) [Example 4, 1-benzenesulphonyl-5-n-butoxy-1,5-dihydro-2H-pyrrol-2-one] | 54 | 96 | 79 | have shown an anti-amnesic activity
CCCCCOC1C=CC(=O)N1S(=O)(=O)c1ccccc1 (stereo not drawn) [Example 6, 1-benzenesulphonyl-1,5-dihydro-5-n-pentyloxy-2H-pyrrol-2-one] | 73 | 92 | 76 | have shown an anti-amnesic activity
NC(=O)CN1CCCC1=O [PIRACETAM, reference compound] | 10 | 48 | 20 | –
CCCCOC1C=CC(=O)N1S(=O)(=O)c1cccc(C(F)(F)F)c1 (stereo not drawn) [Example 12, 1-(3-trifluoromethyl-benzenesulphonyl)-5-n-butyloxy-1,5-dihydro-2H-pyrrol-2-one] | 20 | 75 | 92 | have shown an anti-amnesic activity
